Measurements published in article PMC3818835, “What Goes around Comes around-A Comparative Study of the Influence of Chemical Modifications on the Antimicrobial Properties of Small Cyclic Peptides” (Pharmaceuticals, 2013).
In brackets after ≈: the same amount, converted by molar mass. Peptide text beside a SMILES is read from it. * marks the point of attachment. 6FAM = O=C1OC2(c3ccc(O)cc3Oc3cc(O)ccc32)c2cc(C(=O)*)ccc21; X2 = O=c1cc(C*)c2cc(Br)c(O)cc2o1

Tests used:
E. coli DH5α = assay type: cell-based; conditions: 18 h
Description: (§1) The minimal inhibitory concentration (MIC) of the cyclic hexapeptides was tested against Gram-negative E. coli DH5α and Gram-positive B. subtilis DSM 347 using a microdilution technique in 96 well microtiter plates as described previously. Briefly, cells from an overnight culture were inoculated 1:100 in LB medium, grown to mid log phase (OD600 0.4 ± 0.1) and adjusted to 5 × 10^5 cells/well. Final peptide concentrations ranged from 0.05 µM to 100 µM (2-fold dilutions) and were tested in triplicates in at least three independent experiments. The MIC was determined after 18 h of incubation at 37 °C, 180 rpm being the lowest peptide concentration at which no visible bacterial growth can be detected photometrically (A600, Safire Microplate Reader, Tecan, Männedorf, Germany).

B. subtilis DSM 347 = assay type: cell-based; conditions: DSM 347, 18 h
Description: as §1

human erythrocytes = assay type: cell-based; conditions: pH 7.4
Description: The lytic effect of selected peptides upon human erythrocytes was determined as described before. Briefly, cells were washed thoroughly in Tris buffer (10 mM Tris, 150 mM NaCl, pH 7.4). Suspensions with 2.5 × 10^8 cells/mL were incubated with peptides at a final concentration of 100 µM for 30 min at 37 °C. After centrifugation, 0.6% NH4OH was added to an aliquot of the supernatant and hemoglobin absorption (A) was measured at 540 nm (Jasco V-550). Whole cell suspensions exposed to NH4OH were used as positive control (A100%) and preparations without peptide served as negative control (A0%), respectively. Data were collected in three independent experiments.

[1] = Hydrophobicity: retention time tR by reversed phase HPLC; assay type: physicochemical; conditions: chromatographic, RP-HPLC ProntoSil 300-5-C18-H (250 × 4.6 mm, 5 µm); peptide 1 mg/mL in phase A (0.1% TFA in water); B 0.1% TFA in 80% acetonitrile; linear gradient 5%–95% B over 40 min at 22 °C; used as a measure of hydrophobicity
Description: The retention time tR of the cyclic hexapeptides was determined by HPLC on a Jasco LC-2000Plus using a ProntoSil 300-5-C18-H column (250 × 4.6 mm, 5 µm) (Bischoff Chromatography). Peptide concentration was 1 mg/mL in mobile phase A (0.1% TFA in deionized water), mobile phase B consisted of 0.1% TFA in 80% acetonitrile in deionized water. For chromatographic analyses a linear gradient of 5%–95% phase B over 40 min at 22 °C was applied.
To investigate the influence of fluorescent label modification and amino acid substitution on the hydrophobicity/amphipathicity of the cyclic hexapeptide derivatives, we determined the retention time tR by reversed phase HPLC (Figure 2). The method monitors the retention of compounds by the hydrophobic HPLC stationary phase. Differences in tR reflect differences in the effective hydrophobicity of the molecule which is related to the intrinsic hydrophobicity of the individual residues and their ability to form hydrophobic domains for interaction with the HPLC matrix. At the same time, hydrophilic residues will locate at the opposite side of the molecule. Reduction in the size or positioning of cationic residues next to the hydrophobic molecular surface area would reduce amphipathicity. tR-measurements have successfully been applied to characterize amphipathic helices, β-structured peptides and different sets of our small cyclic R-, W-rich peptides.

| Structure (SMILES) | MIC E. coli DH5α (E. coli DH5α) | MIC B. subtilis DSM 347 (B. subtilis DSM 347) | Hemolysis at 100 µM (human erythrocytes) | Retention Time tR [1] |
| --- | --- | --- | --- | --- |
| NCCCC[C@@H]1NC(=O)[C@H](CCCCN)NC(=O)[C@H](Cc2c[nH]c3ccccc23)NC(=O)[C@H](Cc2ccccc2)NC(=O)[C@H](Cc2c[nH]c3ccccc23)NC(=O)[C@H](CCCCN)NC1=O [cKKK] (cyclo(KKKWFW)) | 100 µM (≈ 90.4 µg/mL) | 50 µM (≈ 45.2 µg/mL) | 8% | 17.70 min |
| N=C(N)NCCC[C@@H]1NC(=O)[C@H](CCCCN)NC(=O)[C@H](CCCCN)NC(=O)[C@H](Cc2c[nH]c3ccccc23)NC(=O)[C@H](Cc2ccccc2)NC(=O)[C@H](Cc2c[nH]c3ccccc23)NC1=O [cKKR] (cyclo(KKRWFW)) | 100 µM (≈ 93.2 µg/mL) | 25 µM (≈ 23.3 µg/mL) | 3% | 17.86 min |
| N=C(N)NCCC[C@@H]1NC(=O)[C@H](CCCCN)NC(=O)[C@H](Cc2c[nH]c3ccccc23)NC(=O)[C@H](Cc2ccccc2)NC(=O)[C@H](Cc2c[nH]c3ccccc23)NC(=O)[C@H](CCCCN)NC1=O [cKRK] (cyclo(KRKWFW)) | 12 µM (≈ 11.2 µg/mL) | 25 µM (≈ 23.3 µg/mL) | 2% | 17.27 min |
| N=C(N)NCCC[C@@H]1NC(=O)[C@H](CCCCN)NC(=O)[C@H](Cc2c[nH]c3ccccc23)NC(=O)[C@H](CSCc2cc(=O)oc3cc(O)c(Br)cc23)NC(=O)[C@H](Cc2c[nH]c3ccccc23)NC(=O)[C@H](CCCCN)NC1=O [cR2[S-Cu]] (cyclo(KRKWC(X2)W)) | 50 µM (≈ 57.1 µg/mL) | 25 µM (≈ 28.5 µg/mL) | 5% | 17.49 min |
| N=C(N)NCCC[C@@H]1NC(=O)[C@H](Cc2c[nH]c3ccccc23)NC(=O)[C@H](Cc2ccccc2)NC(=O)[C@H](Cc2c[nH]c3ccccc23)NC(=O)[C@H](CCCCN)NC(=O)[C@H](CCCCN)NC1=O [cRKK] (cyclo(RKKWFW)) | 50 µM (≈ 46.6 µg/mL) | 25 µM (≈ 23.3 µg/mL) | 56% | 18.38 min |
| N=C(N)NCCC[C@@H]1NC(=O)[C@H](CCCCN)NC(=O)[C@H](CCCNC(=N)N)NC(=O)[C@H](Cc2c[nH]c3ccccc23)NC(=O)[C@H](Cc2ccccc2)NC(=O)[C@H](Cc2c[nH]c3ccccc23)NC1=O [cRKR] (cyclo(RKRWFW)) | 50 µM (≈ 48 µg/mL) | 12 µM (≈ 11.5 µg/mL) | 4% | 18.60 min |
| N=C(N)NCCC[C@@H]1NC(=O)[C@H](CCCNC(=N)N)NC(=O)[C@H](CCCCNC(=O)c2ccc3c(c2)C2(OC3=O)c3ccc(O)cc3Oc3cc(O)ccc32)NC(=O)[C@H](Cc2c[nH]c3ccccc23)NC(=O)[C@H](Cc2c[nH]c3ccccc23)NC(=O)[C@H](CCCNC(=N)N)NC1=O [cW2[Fluos]] (cyclo(RRRWWK(6FAM))) | >100 µM | >100 µM | 9% | 19.28 min |
| N=C(N)NCCC[C@@H]1NC(=O)[C@H](CCCCNC(=O)c2ccc3c(c2)C2(OC3=O)c3ccc(O)cc3Oc3cc(O)ccc32)NC(=O)[C@H](Cc2c[nH]c3ccccc23)NC(=O)[C@H](Cc2c[nH]c3ccccc23)NC(=O)[C@H](Cc2c[nH]c3ccccc23)NC(=O)[C@H](CCCNC(=N)N)NC1=O [cW3[Fluos]] (cyclo(RRWWWK(6FAM))) | >100 µM | >100 µM | 2% | 22.08 min |
